Experimental data taken from patent US20220267753A1, “RATIONAL THERAPEUTIC TARGETING OF ONCOGENIC IMMUNE SIGNALING STATES IN MYELOID MALIGNANCIES VIA THE UBIQUITIN CONJUGATING ENZYME UBE2N” (CHILDREN'S HOSPITAL MEDICAL CENTER, priority 2019, published 2022).

Tests used:
UBE2N/UBE2V1 = biological target: T1, UBE2N/UBE2V1 (Homo sapiens, UniProt P61088); experiment: Thioester bond formation assay; type: biochemical; conditions: read-out: inhibition of UBE2N-Ub thioester conjugate formation
T1 construct: purchased Enzo Life Science BML-UW9565
Protocol: An in vitro Ubiquitin-E2 thioester (TE) bond formation assay was performed as described (Enzo Life Science, #BML-UW9920-0001, Farmingdale, N.Y.). The reaction was prepared as follows: 10×E2 (UBE2N/Mms2, No. BML-UW9565; UbcH5a, No. BML-UW9050; or UbcH6, Prod. No. BML-UW8710) were incubated with UC-764864 or UC-764865 at 1 or 2 μM for 30 minutes at room temperature. After the incubation period, the following reagents were added to the reaction: distilled water, 10× ubiquitination buffer, inorganic pyrophosphatase solution (100 U/mL in 20 mM Tris-HCl, pH 7.5, Sigma, 83205, St. Louis, Mo.), 50 mM DTT, 0.1 M Mg-ATP, 20×E1 (recombinant human ubiquitin-activating enzyme) and 20× biotinylated ubiquitin to a final volume of 10 p.l. The mixture was incubated for 4 hours at 37° C. The reaction was stopped by adding 10 p.l 2× non-reducing gel loading buffer. 15 p.l of the samples were run on SDS-PAGE gels and transferred to PVDF membrane. […] After washing the membrane for 6×10 mins with TBS-T on a rocking platform, total ubiquitin was detected with ECL detection reagent (Pierce™ ECL Western Blotting Substrate, #32106, Appleton, Wis.) according to the manufacturer's instructions. Detect emitted signal with Biorad ChemiDoc™ MP and analyzed with Image lab software 6.0.1 (Biorad, Hercules, Calif.) or Image J [67]. […]

MOLM-14 = experiment: Cell proliferation MTS assay; type: cell-based; conditions: Homo sapiens; MOLM-14, MTS, 24 hours
Protocol: (§1) AML cell lines (5×10^3 cells/well) were seeded in 96-well plates and grown for 24 to 96 h in serum (10%)-containing medium in the presence or absence of inhibitors at the indicated concentrations. Proliferation was analyzed by means of an MTS assay using the CellTiter 96 Aqueous One Solution Cell Proliferation Assay (Promega, Madison, Wis., USA), according to the manufacturer's instructions. Data are mean with standard deviation from three independent experiments in technical triplicates. For the screening of 160 compounds from the UC library, the cell metabolic activity was assessed at 24 hours of treatment of MOLM-13 cells. Top 15 candidates were re-screened at 2 μM, and the cell metabolic activity was determined at 24 hours of treatment. In certain experiments, cell viability was determined by staining the cells with trypan blue at a 1/2 dilution and counting total number of viable cells upon treatment with UC-764864 or DMSO control. The cells were counted daily for 4 days using an automated cell counter (Countess II FL from Life Technologies). The cell proliferation in primary AMLs in FIG. 9E was performed as follows: 50,000 cells were plated in duplicate in a 96 well plate in IMDM containing 20% heat inactivated FBS plus 10 ng/ml of each SCF, IL3, IL6, TPO, and FLT3. UC-764864 was added at the indicated concentrations and cells were incubated with drug for 3 days, at which point cell viability was measured by MTS according to manufacturer's instructions.

NOMO-1 = experiment: Cell proliferation MTS assay; type: cell-based; conditions: Homo sapiens; NOMO-1, MTS, 24 hours
Protocol: as §1

KG-1a = experiment: Cell proliferation MTS assay; type: cell-based; conditions: Homo sapiens, 24 hours
Protocol: as §1

HL-60 = experiment: Cell proliferation MTS assay; type: cell-based; conditions: Homo sapiens; HL-60, MTS, 24 hours
Protocol: as §1

MDS92 = experiment: Cell proliferation MTS assay; type: cell-based; conditions: Homo sapiens, 24 hours
Protocol: as §1

SKM-1 = experiment: Cell proliferation MTS assay; type: cell-based; conditions: Homo sapiens; SKM-1, MTS, 24 hours
Protocol: as §1

MV4-11 = experiment: Cell proliferation MTS assay; type: cell-based; conditions: Homo sapiens; MV4-11, MTS, 24 hours
Protocol: as §1

Kasumi-1 = experiment: Cell proliferation MTS assay; type: cell-based; conditions: Homo sapiens; Kasumi-1, MTS, 24 hours
Protocol: as §1

THP-1 = experiment: Cell proliferation MTS assay; type: cell-based; conditions: Homo sapiens; THP-1, MTS, 24 hours
Protocol: as §1

cord blood CD34+ cells = experiment: Colony formation (clonogenic) assay in healthy cells; type: cell-based, human
Protocol: In order to determine viability after UBE2N knockdown or inhibition, 1×10^6 AML cells were washed with PBS and mixed with pre-diluted APC-conjugated Annexin V (BD Pharmigen, Franklin Lakes, N.J.) and Propidium iodide (PI) (Invitrogen ThermoFisher 00-6990-42, Waltham, Mass.). Cells were stained at room temperature for 15 minutes and suspended in 0.5 ml of Annexin V incubation buffer (eBiosciences 88-8007-74, San Diego, Calif.) for analysis using a BD FACS Canto System (BD Biosciences, San Jose, Calif.). For UBE2N knockdown experiments, PI−/GFP+ cells were sorted using a MoFlo XDP sorter (Beckman Coulter, Brea, Calif.) and plated in methylcellulose (StemCell Technologies H4236, Vancouver, CA) at 1000 cells/ml in 35 mm culture dishes. For UBE2N inhibition experiments, cell lines were plated in methycellulose (StemCell Technologies H4236, Vancouver, CA) at the indicated concentrations of inhibitor. Cells were incubated at 37° C. and 5% CO2. Colonies were scored after 7 days in culture. For UBE2N or UBE2N C87S overexpression experiments, MOLM-13 cells were transduced with lentivectors overexpressing UBE2N wild type or mutant in the presence of polybrene (8 μg/ml). […] Colonies were scored at 7 days. […] Colonies were manually scored at 14-16 days after plating or counted with STEMVision (StemCell Technologies, Vancouver, CA).

T1 sequence (P61088 whole entry): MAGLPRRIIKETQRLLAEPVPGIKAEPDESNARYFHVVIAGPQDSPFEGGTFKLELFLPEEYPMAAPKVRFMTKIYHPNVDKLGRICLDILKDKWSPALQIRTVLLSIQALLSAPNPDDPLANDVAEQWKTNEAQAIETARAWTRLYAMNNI
T1 sequence (Q13404 whole entry partner): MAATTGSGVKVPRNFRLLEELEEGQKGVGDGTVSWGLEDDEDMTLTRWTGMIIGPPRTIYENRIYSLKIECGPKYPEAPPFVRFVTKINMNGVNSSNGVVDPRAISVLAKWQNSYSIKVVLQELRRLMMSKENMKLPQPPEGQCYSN

inhibition at 1 µM (UBE2N/UBE2V1; 1 μM): 20%
inhibition at 2 µM (UBE2N/UBE2V1; 2 μM): 80%
IC50 (MOLM-14): 0.02 µM
IC50 (HL-60): 4.3 µM
IC50 (SKM-1): 0.4 µM
IC50 (MV4-11): 5 µM
IC50 (THP-1): 2.5 µM
Compound: CCc1ccc(C(=O)C=CSc2nc3ccc(C)cc3[nH]2)cc1 [UC-764864, 1-(4-ethylphenyl)-3-[(6-methyl-1H-benzimidazol-2-yl)sulfanyl]prop-2-en-1-one]
IC50 (NOMO-1): 6.7 µM
IC50 (KG-1a): > 10 µM
IC50 (MDS92): > 10 µM
IC50 (Kasumi-1): 6.6 µM
clonogenic potential of cord blood CD34+ cells (cord blood CD34+ cells): did not affect
